Twelve compounds from US11548893B2 (priority 2017, dated 2023) can be followed below.

The test system of series [1] is EBOV (mucin-deleted glycoprotein, VSV pseudotype). Briefly: microbe, parasite or virus in culture. Format: cell-based, Zaire ebolavirus. Conditions: read-out: EC50 Pseudotype Assays EBOV.
The next series relates to Vero cells. Conditions: African green monkey.
Series [2] deals with BDBV (mucin-deleted glycoprotein, VSV pseudotype). Briefly: microbe, parasite or virus in culture. Conditions: read-out: EC50 Pseudotype Assays BDBV. Format: cell-based, Bundibugyo ebolavirus.
For series [3], the system named is SUDV (glycoprotein, VSV pseudotype). Briefly: microbe, parasite or virus in culture. Conditions: read-out: EC50 Pseudotype Assays SUDV. In kind it is cell-based, Sudan ebolavirus.
Series [4] has as its system Ebola Zaire. The experiment in a line: microbe, parasite or virus in culture. Conditions: Zaire ebolavirus, read-out: Ebola Zaire EC90.
Series [5] in a line: in vitro. Conditions: African green monkey, Cytotox CC50.
Series [6] concerns Sudan Gulu.
A short description of series [7]: in vitro. Conditions: African green monkey.
Series [8] has as its system Ebola Zaire. Briefly: microbe, parasite or virus in culture. Conditions: Zaire ebolavirus, HeLa, read-out: Ebola Zaire EC50.
The next series relates to EBOV (Mayinga). Briefly: microbe, parasite or virus in culture. In kind it is cell-based, Ebola virus. Conditions: for EC50: Zaire ebolavirus, Vero.
Series [9] concerns Sudan Gulu. Briefly: organism not typed. Conditions: HeLa, read-out: Sudan Gulu EC50.
Series [10] deals with MARV (full-length glycoprotein, VSV pseudotype). Briefly: microbe, parasite or virus in culture. Format: cell-based, Marburg marburgvirus. Conditions: read-out: EC50 Pseudotype Assays MARV.
Series [11] deals with Ebola Zaire. The experiment in a line: microbe, parasite or virus in culture. Conditions: Zaire ebolavirus, read-out: Ebola Zaire EC50.
Series [12] relates to Ebola Zaire.
Series [13] relates to EBOV_FL: full-length Ebola Zaire GP (VSV pseudotype). The experiment in a line: microbe, parasite or virus in culture. In kind it is cell-based, Zaire ebolavirus. Conditions: read-out: EC50 Pseudotype Assays EBOV_FL.
Series [14] relates to VSV (native full-length glycoprotein). Briefly: microbe, parasite or virus in culture. In kind it is cell-based. Conditions: Vesicular stomatitis virus, Vero, read-out: EC50 Pseudotype Assays VSV.
The conditions of series [15]: microsomes, 1 h.
The conditions of series [16]: microsomes, 1 h. The source holds these as a separate data set.
The conditions of series [17]: microsomes, 1 h. This is another data set of the same source.
Series [18] relates to Ebola Zaire. This is another data set of the same source.
The conditions of series [19]: microsomes, 1 h. This is another data set of the same source.
Setting [20] is: Vesicular stomatitis virus, Vero, 24 h.

Each structure is given as a SMILES string. Where two headings read alike, the source gives them in different places.

A word on the EC50: it is the concentration at which the effect is half-maximal. As for `C[C@H]1C[C@@H](NC(=O)C23CC4C[C@@](C)(C2)C[C@](c2ccccc2)(C4)C3)CCN1` [Example B15], the EC50 in series [1] was 35 nM; in series [2], 210 nM; in series [3], 610 nM. For the same compound, the CC50 with Vero cells was determined as 14800 nM.

As a reminder, the EC90 is the point of the concentration-response curve where the effect stands at 90%. As for `C[C@]12CC3CC(C(=O)N[C@H]4CN5CCC4CC5)(C1)C[C@@](c1ccccc1)(C3)C2` [Example B58], the EC50 in series [1] (Zaire ebolavirus, Vero, 24 h) came to 36 nM; in the series with Ebola Zaire [8], 900 nM; with EBOV (Mayinga), 400 nM; in the series on Sudan Gulu [9], 150 nM; in [2] (setting [20]), 230 nM; in [10] (setting [20]) it was 1680 nM. The half-maximal effective concentration (EC50) turned out to be 400 nM in the series on Ebola Zaire [11] and 220 nM in series [3] (setting [20]). The concentration for an effect of 90% (EC90) in the series on Ebola Zaire [4] worked out at 4400 nM. Besides, the figures for the CC50 in the series “in vitro [5]” and in the series “in vitro [7]” were 8000 nM and 25700 nM, respectively. In addition, the “Sudan Gulu SI (CC50/EC50)” value in the series on Sudan Gulu [6] was 157. In addition, the “SI50 (CC50/EC50)” value in the series with EBOV (Mayinga) was found to be 64. The “Ebola Zaire SI (CC50/EC90)” value in the series on Ebola Zaire [12] amounted to 6.5.

As for `CC12CC3CC(C(=O)N[C@@H]4CCNC[C@H]4F)(C1)CC(c1ccccc1)(C3)C2` (mixture of isomers) [Example A5], the concentration giving a half-maximal response (EC50) is 50 nM in series [1] (Zaire ebolavirus, Vero, 24 h); 30 nM in series [13] (Zaire ebolavirus, Vero, 24 h); over 10000 nM in series [14]; 190 nM in series [2] (setting [20]); 4880 nM in series [10] (setting [20]); 410 nM in series [3] (setting [20]). This compound also gave a CC50 in “in vitro [5]” of 11300 nM.

Turning to `CCC12CC3CC(C(=O)NC4CCNCC4(C)C)(C1)CC(c1ccccc1)(C3)C2` (racemic) [Example A52], the EC50 turned out to be 38 nM in series [1]; 30 nM in [13]; 168 nM in series [2]; 1200 nM in [10]; 400 nM in [3]. This compound displayed a CC50 in the series with Vero cells of 5700 nM.

For `CCC12CC3CC(C(=O)N[C@@H]4CCNC[C@H]4F)(C1)CC(c1ccccc1)(C3)C2` (mixture of isomers) [Example A18], the EC50 in [1] stood at 200 nM; in series [13], 30 nM; in [2], 203 nM; in series [10], 3500 nM; in series [3] it was 303 nM. The compound also came in with a CC50 in the series with Vero cells of 9800 nM.

`C[C@@]12CC3CC(C(=O)N[C@H]4CC[C@@H](N)CC4)(C1)C[C@](c1ccccc1)(C3)C2` [Example C2]: the 50% effective concentration (EC50) in series [1] (Zaire ebolavirus, Vero, 24 h) was 135 nM; in series [13] (Zaire ebolavirus, Vero, 24 h), 209 nM; in the series on EBOV (Mayinga), 2670 nM; in [2] (setting [20]) it was 252 nM; in series [10] (setting [20]), 8720 nM; in series [3] (setting [20]), 767 nM. Further, the CC50 came to 25500 nM in the series “in vitro [5]” and 21400 nM in “in vitro [7]”. Besides, in the series with EBOV (Mayinga), the “SI50 (CC50/EC50)” value stood at 8.

As for `CC12CC3CC(CN4CCC(N)CC4)(C1)CC(c1ccccc1)(C3)C2` (stereo not shown) [Example A69], the “Liver Microsome Stability % Remaining after 60 Minutes, Guinea Pig” value in series [15] is reported as 65%. Further, the concentration giving a half-maximal response (EC50) in [1] (Zaire ebolavirus, Vero, 24 h) is 321 nM; with Ebola Zaire [8], 440 nM; in the series with Sudan Gulu [9], 70 nM; in [2] (setting [20]), 163 nM; in series [10] (setting [20]) it was 950 nM; in series [3] (setting [20]), 290 nM. In addition, the “Liver Microsome Stability % Remaining after 60 Minutes, Human” value in [16] is 98%. In series [17], the “Liver Microsome Stability % Remaining after 60 Minutes, Monkey” value was found to be 68%. Besides, the CC50 in “in vitro [5]” was determined as 2200 nM. In addition, in the series on Sudan Gulu [6], the “Sudan Gulu SI (CC50/EC50)” value amounted to 58. For the same compound, the “Ebola Zaire SI (CC50/EC50)” value in the series on Ebola Zaire [18] worked out at 16. The “Liver Microsome Stability % Remaining after 60 Minutes, Mouse” value in [19] stood at 100%.

As for `CC12CC3CC(C(=O)N[C@H]4CN5CCC4CC5)(C1)CC(c1ccccc1)(C3)C2` (mixture of isomers) [Example A58], the concentration giving a half-maximal response (EC50) in [1] (Zaire ebolavirus, Vero, 24 h) was 74 nM; in [13] (Zaire ebolavirus, Vero, 24 h) it was 70 nM; in series [14], over 10000 nM; in series [2] (setting [20]) it was 198 nM; in [10] (setting [20]) it was 282 nM; in series [3] (setting [20]), 383 nM. In addition, the CC50 in the series “in vitro [5]” was determined as 7200 nM.

`C[C@@]12CC3CC(C(=O)NC4CCNCC4)(CC(c4ccccc4)(C3)C1)C2` [Example B1]: the concentration giving a half-maximal response (EC50) in series [1] (Zaire ebolavirus, Vero, 24 h) is 34 nM; in [13] (Zaire ebolavirus, Vero, 24 h), 10 nM; in the series on Ebola Zaire [8], 640 nM; with Sudan Gulu [9], 120 nM; in series [2] (setting [20]), 238 nM; in series [10] (setting [20]), over 3000 nM. The EC50 was over 3200 nM in the series with Ebola Zaire [11] and 250 nM in [3] (setting [20]). For the same compound, the EC90 in the series on Ebola Zaire [4] came to 2100 nM. The “Liver Microsome Stability % Remaining after 60 Minutes, Human” value in series [16] stood at 81%. For the same compound, in series [17], the “Liver Microsome Stability % Remaining after 60 Minutes, Monkey” value is 83%. Also, the CC50 in “in vitro [5]” came to 12300 nM. For the same compound, in the series on Sudan Gulu [6], the “Sudan Gulu SI (CC50/EC50)” value came out at 285. Moreover, in the series with Ebola Zaire [18], the “Ebola Zaire SI (CC50/EC50)” value was 51. In series [19], the “Liver Microsome Stability % Remaining after 60 Minutes, Mouse” value was determined as 87%. For the same compound, the “Ebola Zaire SI (CC50/EC90)” value with Ebola Zaire [12] is on record as over 48.

Turning to `CC12CC3CC(C(=O)N4CCC(N)C(C)(C)C4)(C1)CC(c1ccccc1)(C3)C2` (racemic) [Example A35], in [15], the “Liver Microsome Stability % Remaining after 60 Minutes, Guinea Pig” value was 45%. In addition, the EC50 in [1] (Zaire ebolavirus, Vero, 24 h) was found to be 10 nM; in series [13] (Zaire ebolavirus, Vero, 24 h) it was 20 nM; in the series with Ebola Zaire [8], 1140 nM; in the series on Sudan Gulu [9] it was 140 nM; in [2] (setting [20]) it was 71 nM; in series [3] (setting [20]), 80 nM. Further, in [16], the “Liver Microsome Stability % Remaining after 60 Minutes, Human” value was 97%. Also, in [17], the “Liver Microsome Stability % Remaining after 60 Minutes, Monkey” value is recorded as 22%. In the series “in vitro [5]”, this compound had a CC50 of 10200 nM. For the same compound, the “Sudan Gulu SI (CC50/EC50)” value in the series on Sudan Gulu [6] turned out to be 136. Also, the “Ebola Zaire SI (CC50/EC50)” value in the series on Ebola Zaire [18] worked out at 29. In addition, the “Liver Microsome Stability % Remaining after 60 Minutes, Mouse” value in series [19] stood at 42%.

`C[C@]12CC3CC(C(=O)N[C@H]4CC[C@H](CN)CC4)(C1)C[C@@](c1ccccc1)(C3)C2` [Example B3]: the concentration for a half-maximal effect (EC50) in series [1] (Zaire ebolavirus, Vero, 24 h) worked out at 9 nM; in [13] (Zaire ebolavirus, Vero, 24 h), 10 nM; with Ebola Zaire [8], 570 nM; in the series on Sudan Gulu [9], 120 nM; in [2] (setting [20]), 114 nM; in series [10] (setting [20]) it was 3600 nM. Further, the concentration giving a half-maximal response (EC50) in the series with Ebola Zaire [11] amounted to 430 nM; in series [3] (setting [20]), 230 nM. For the same compound, the EC90 in the series on Ebola Zaire [4] is 600 nM. Besides, the “Liver Microsome Stability % Remaining after 60 Minutes, Human” value in [16] was determined as 83%. The “Liver Microsome Stability % Remaining after 60 Minutes, Monkey” value in [17] is listed as 61%. In addition, the CC50 in the series “in vitro [5]” is 6110 nM. Besides, the “Sudan Gulu SI (CC50/EC50)” value with Sudan Gulu [6] amounted to 119. In addition, the “Liver Microsome Stability % Remaining after 60 Minutes, Mouse” value in series [19] was found to be 27%. Also, the “Ebola Zaire SI (CC50/EC90)” value with Ebola Zaire [12] turned out to be 23.

Turning to `C[C@H]1C[C@@H](NC(=O)C23CC4C[C@@](C)(C2)C[C@](c2ccccc2)(C4)C3)CCN1` [Example B4], the 50% effective concentration (EC50) was 13 nM in [1]; 620 nM in the series on Ebola Zaire [8]; 150 nM in the series with Sudan Gulu [9]; 104 nM in series [2]; over 3000 nM in [10] (setting [20]); 166 nM in [3]. For the same compound, the EC90 in the series with Ebola Zaire [4] was 2900 nM. The “Liver Microsome Stability % Remaining after 60 Minutes, Human” value in series [16] was found to be 82%. Further, the “Liver Microsome Stability % Remaining after 60 Minutes, Monkey” value in series [17] stood at 54%. In the series “in vitro [5]”, this compound showed a CC50 of 22500 nM. Also, the “Sudan Gulu SI (CC50/EC50)” value with Sudan Gulu [6] amounted to 155. Besides, the “Ebola Zaire SI (CC50/EC50)” value in the series with Ebola Zaire [18] was determined as 54. The “Liver Microsome Stability % Remaining after 60 Minutes, Mouse” value in series [19] amounted to 92%. Further, the “Ebola Zaire SI (CC50/EC90)” value with Ebola Zaire [12] is over 35.
